Some test systems named below: KM12 colon; OVCAR-4 ovarian; NCI-H460 lung; OVCAR-5 ovarian; HCC-2998 colon; BT-549 breast; NCI-H23 lung; UO-31 renal; U251 CNS; MDA-N.
What all share (assay): inhibition of tumour cell growth, NCI panel, 48 h

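Tested at 5 concentrations; 48 h exposure; 96-well plates; endpoints linearly interpolated, else capped at highest concentration. TGI marks complete inhibition of growth.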 Some results are limits rather than exact numbers.

For the compound `O=[N+]([O-])c1c(Br)cc(Br)c2c1Nc1c(ccc(Cl)c1Cl)S2`, the TGI with KM12 colon turned out to be 20.5 µM; in the test on OVCAR-4 ovarian, 28.7 µM; in the test with NCI-H460 lung, 41.4 µM; in the test on OVCAR-5 ovarian it was 33.7 µM; with HCC-2998 colon, 28.8 µM; in the test on BT-549 breast, 8.87 µM. Also, the TGI in the test on NCI-H23 lung was determined as 29.6 µM; in the test on UO-31 renal it was 20.5 µM; in the test on U251 CNS, 35.1 µM.

As for `C[C@@H](O)C(=O)N1[C@@H]2CC3CC[C@]2(CS1(=O)=O)C3(C)C`, the TGI in the test with KM12 colon, in the test on OVCAR-4 ovarian, with NCI-H460 lung, in the test on OVCAR-5 ovarian, with HCC-2998 colon and in the test on BT-549 breast was > 100 µM throughout. Also, the TGI with NCI-H23 lung, in the test with UO-31 renal and in the test on U251 CNS was > 100 µM each time.

Consider `COc1nc2c(c(=O)n1C)N[C@H]1[C@H](OC(C)=O)[C@@H](OC(C)=O)CO[C@H]1N2`, for which the TGI with KM12 colon, in the test with MDA-N, with OVCAR-4 ovarian, with NCI-H460 lung, in the test on OVCAR-5 ovarian and in the test on BT-549 breast was > 100 µM throughout. For the same compound, the TGI in the test on UO-31 renal and with U251 CNS was > 100 µM each time.

Turning to `CC1(C)OCC(C(O)C2OC(C)(C)OC2C=O)O1` (configuration not stated), the TGI in the test with KM12 colon, with MDA-N, in the test on OVCAR-4 ovarian, in the test on OVCAR-5 ovarian, in the test with NCI-H23 lung and in the test with UO-31 renal was > 100 µM throughout. In the test on U251 CNS, the TGI was > 100 µM.

Regarding `COc1cccc(CC(C)NCC(O)c2ccc(O)c(O)c2)c1` (configuration not stated), the TGI in the test with KM12 colon is > 100 µM; with OVCAR-4 ovarian it was > 100 µM; in the test with NCI-H460 lung, > 100 µM; in the test with OVCAR-5 ovarian, 47.4 µM; in the test on BT-549 breast, > 100 µM; in the test with NCI-H23 lung, > 100 µM. The TGI in the test on UO-31 renal and in the test with U251 CNS was > 100 µM throughout.

As to `Nc1cccc2c1C(=O)c1cccc(N)c1C2=O`, the TGI in the test with KM12 colon, with OVCAR-4 ovarian, with NCI-H460 lung, with OVCAR-5 ovarian, in the test on HCC-2998 colon and with NCI-H23 lung was > 100 µM in each case. Further, the TGI in the test with UO-31 renal and in the test with U251 CNS was > 100 µM each time.

`Cn1nc2n(c1=O)CCCN2`: the TGI in the test on KM12 colon, in the test with MDA-N, in the test with OVCAR-4 ovarian, with NCI-H460 lung, in the test on OVCAR-5 ovarian and with HCC-2998 colon was > 100 µM in each case. In addition, the TGI in the test with NCI-H23 lung and in the test on U251 CNS was > 100 µM in each case.

Turning to `Cc1nc2c3c(ncn2n1)Oc1c(c(-c2ccccc2)nn1-c1ccccc1)C3c1ccc(Cl)cc1` (configuration not stated), the TGI in the test with KM12 colon, in the test with MDA-N, in the test on OVCAR-4 ovarian, in the test on NCI-H460 lung, in the test on OVCAR-5 ovarian and with HCC-2998 colon was > 100 µM each time. The TGI with NCI-H23 lung, in the test on UO-31 renal and in the test on U251 CNS was > 100 µM each time.

Take `O=C(CCN1CCCC1)Nc1ccc2sc3ccccc3c(=O)c2n1`: the TGI with KM12 colon is 18.3 µM; in the test with MDA-N it was 20.1 µM; in the test on OVCAR-4 ovarian, 21.7 µM; in the test with OVCAR-5 ovarian, 19 µM; with HCC-2998 colon it was 17 µM; in the test with BT-549 breast it was 19.2 µM. In addition, the TGI in the test with NCI-H23 lung turned out to be 22.9 µM; in the test on UO-31 renal, 16.3 µM; in the test on U251 CNS, 18.5 µM.

Take `Cc1cc(O)c(C(C)C)cc1SC#N`: the TGI in the test with KM12 colon is 31.4 µM; in the test on OVCAR-4 ovarian, 28.5 µM; in the test with NCI-H460 lung, 33.4 µM; with HCC-2998 colon, 32.9 µM; in the test on BT-549 breast it was 36.4 µM; in the test with NCI-H23 lung, 33.3 µM. In addition, the TGI in the test on U251 CNS came to 31.8 µM.

Turning to `CCOP(=O)(OCC)C(Nc1cccc(F)c1)c1ccccc1` (configuration not stated), the TGI with KM12 colon, in the test on MDA-N, in the test with OVCAR-4 ovarian, in the test on NCI-H460 lung, with HCC-2998 colon and in the test with BT-549 breast was > 100 µM in each case. Also, the TGI in the test on NCI-H23 lung, with UO-31 renal and in the test with U251 CNS was > 100 µM throughout.

As for `CC(=O)OCC1OC(n2c3c(c(-c4cccc5ccccc45)c(C#N)c2=S)CCCC3)C(OC(C)=O)C(OC(C)=O)C1OC(C)=O` (configuration not stated), the TGI in the test with KM12 colon, in the test with MDA-N, with OVCAR-4 ovarian, with NCI-H460 lung, with OVCAR-5 ovarian and with HCC-2998 colon was > 100 µM each time. In addition, the TGI is > 100 µM in the test with NCI-H23 lung, 62.2 µM with UO-31 renal and > 100 µM in the test on U251 CNS.

Consider `C=C(CCC(C)C1CCC2C3=C(C(=O)CC21C)C1(C)CCC(=O)[C@@H](C)C1CC3=O)C(C)C(=O)O` (some centres not stated), for which the TGI with KM12 colon, in the test on OVCAR-4 ovarian, in the test on NCI-H460 lung, in the test on OVCAR-5 ovarian, with HCC-2998 colon and in the test on BT-549 breast was > 100 µM in each case. Besides, the TGI with NCI-H23 lung was > 100 µM; in the test with UO-31 renal, 32.4 µM; in the test on U251 CNS, > 100 µM.

With `COC(=O)C1CCC(=O)N1C(=O)Cc1ccc(OC)cc1` (configuration not stated), the TGI with KM12 colon, with OVCAR-4 ovarian, in the test on NCI-H460 lung, with OVCAR-5 ovarian, in the test on NCI-H23 lung and with UO-31 renal was > 100 µM each time. Also, in the test on U251 CNS, the TGI was > 100 µM.

Regarding `COc1ccc(/C=c2\[nH]c3nc(=O)c(N4CCOCC4)c(N)n3c2=O)cc1`, the TGI in the test on KM12 colon, in the test with MDA-N, in the test with OVCAR-4 ovarian, in the test on OVCAR-5 ovarian, with HCC-2998 colon and in the test with NCI-H23 lung was > 100 µM throughout. The TGI in the test with UO-31 renal and in the test on U251 CNS was > 100 µM in each case.

For the compound `c1ccc(CCN2CCc3[nH]c4ccccc4c3C2)cc1`, the TGI with KM12 colon was 34.9 µM; in the test with OVCAR-4 ovarian, > 100 µM; in the test on NCI-H460 lung, 30.9 µM; in the test with OVCAR-5 ovarian it was 67 µM; in the test on HCC-2998 colon, 30.5 µM; in the test on NCI-H23 lung, > 100 µM. In addition, the TGI in the test on UO-31 renal is 32 µM; in the test on U251 CNS, 31.9 µM.

The record behind these values is PubChem BioAssay (NCI).
